Data on 29 molecules can be found in patent publication US9085555B2, “Complement pathway modulators and uses thereof” (priority 2011, dated 2015).

The test deals with Factor D (Homo sapiens (Human), UniProt P00746). In words: biochemical. The following applies: read-out: IC50. The class given is biochemical.
Chain of Factor D (P00746 26-253): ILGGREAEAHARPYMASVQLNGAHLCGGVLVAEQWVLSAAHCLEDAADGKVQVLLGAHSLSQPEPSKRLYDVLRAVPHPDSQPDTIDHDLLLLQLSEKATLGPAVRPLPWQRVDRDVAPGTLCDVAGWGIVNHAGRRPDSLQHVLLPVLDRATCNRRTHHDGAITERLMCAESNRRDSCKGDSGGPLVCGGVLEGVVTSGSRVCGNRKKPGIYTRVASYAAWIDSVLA

Regarding `NC(=O)n1cc(NC(=O)N2C[C@@H](N)[C@H](O)[C@H]2C(=O)NCc2cccc(Cl)c2F)c2ccccc21` [Example 429, 2S,3S,4R)-4-Amino-3-hydroxy-pyrrolidine-1,2-dicarboxylic acid 1-[(1-carbamoyl-1H-indol-3-yl)-amide]2-(3-chloro-2-fluoro-benzylamide], the IC50 was 1040 nM.

Turning to `NC(=O)n1cc(NC(=O)N2C[C@@H](N)[C@H](F)[C@H]2C(=O)NCc2cccc(Cl)c2F)c2ccccc21` [Example 430, 2R,3S,4R)-4-Amino-3-fluoro-pyrrolidine-1,2-dicarboxylic acid 1-[(1-carbamoyl-1H-indol-3-yl)-amide]2-(3-chloro-2-fluoro-benzylamide], the IC50 was found to be 58 nM.

`NC(=O)n1cc(NC(=O)N2C[C@H](F)[C@@H](N)[C@H]2C(=O)NCc2cccc(Cl)c2F)c2ccccc21` [Example 431, 2S,3S,4S)-3-Amino-4-fluoro-pyrrolidine-1,2-dicarboxylic acid 1-[(1-carbamoyl-1H-indol-3-yl)-amide]2-(3-chloro-2-fluorobenzylamide]: the IC50 was 31 nM.

Turning to `NC(=O)n1cc(NC(=O)N2NCC[C@H]2C(=O)NCc2cccc(Cl)c2F)c2ccccc21` [Example 432], the IC50 worked out at 7 nM.

As to `NC(=O)n1cc(NC(=O)N2NCC[C@@H]2C(=O)NCc2cccc(Cl)c2F)c2ccccc21` [Example 433], the IC50 is 1790 nM.

Consider `NC(=O)n1cc(NC(=O)N2NCCC2C(=O)NCc2cccc(Cl)c2)c2ccccc21` (centres unmarked) [Example 434, Pyrazolidine-1,5-dicarboxylic acid 1-[(1-carbamoyl-1H-indol-3-yl)-amide]5-(3-chloro-benzylamide)], for which the IC50 turned out to be 35 nM.

As for `COC(=O)[C@H]1C[C@@H](C(=O)Nc2cccc(OC(F)(F)F)c2F)N(C(=O)Nc2cn(C(N)=O)c3ccccc23)C1` [Example 435, (3S,5S)-1-(1-Carbamoyl-1H-indol-3-ylcarbamoyl)-5-(2-fluoro-3-trifluoromethoxy-phenylcarbamoyl)-pyrrolidine-3-carboxylic acid methyl ester], the IC50 turned out to be 250 nM.

As for `NC(=O)n1cc(NC(=O)N2C[C@@H](CO)C[C@H]2C(=O)NCc2c(F)ccc(Cl)c2F)c2ccccc21` [Example 436, 2S,4S)-4-Hydroxymethyl-pyrrolidine-1,2-dicarboxylic acid 1-[(1-carbamoyl-1H-indol-3-yl)-amide]2-(3-chloro-2,6-difluoro-benzylamide], the IC50 was 150 nM.

In the case of `NC(=O)c1cc(Br)cc(NC(=O)[C@@H]2C[C@@H](F)CN2C(=O)Nc2cn(C(N)=O)c3ccccc23)c1` [Example 437, (2S,4R)-4-Fluoro-pyrrolidine-1,2-dicarboxylic acid 2-[(3-bromo-5-carbamoyl-phenyl)-amide]1-[(1-carbamoyl-1H-indol-3-yl)-amide]], the IC50 was determined as 107 nM.

Consider `COCCNC(=O)c1cc(Cl)c(F)c(CNC(=O)[C@@H]2C[C@@H](F)CN2C(=O)Nc2cn(C(N)=O)c3ccccc23)c1` [Example 438, (2S,4R)-4-Fluoro-pyrrolidine-1,2-dicarboxylic acid 1-[(1-carbamoyl-1H-indol-3-yl)-amide]2-[3-chloro-2-fluoro-5-(2-methoxy-ethylcarbamoyl)-benzylamide]], for which the IC50 worked out at 924 nM.

As for `CC(C)c1cc(NC(=O)[C@@H]2CCCN2C(=O)Nc2cn(C(N)=O)c3ccccc23)on1` [Example 439, (S)-Pyrrolidine-1,2-dicarboxylic acid 1-[(1-carbamoyl-1H-indol-3-yl)-amide]2-[(3-isopropyl-isoxazol-5-yl)-amide]], the IC50 came out at 1250 nM.

Consider `NC(=O)n1cc(NC(=O)N2CCC[C@H]2C(=O)Nc2cc(-c3ccccc3)no2)c2ccccc21` [Example 440, (S)-Pyrrolidine-1,2-dicarboxylic acid 1-[(1-carbamoyl-1H-indol-3-yl)-amide]2-[(3-phenyl-isoxazol-5-yl)-amide]], for which the IC50 worked out at 1050 nM.

As for `NC(=O)n1cc(CC(=O)N2CCC[C@H]2C(=O)Nc2cccc(OC(F)(F)F)c2)c2ccccc21` [Example 441, 3-{2-[(S)-2-(3-trifluoromethoxy-phenylcarbamoyl)-pyrrolidin-1-yl]-2-oxo-ethyl}-indole-1-carboxylic acid amide], the IC50 was found to be 5620 nM.

In the case of `NC(=O)n1cc(CC(=O)N2C[C@H](F)C[C@H]2C(=O)Nc2cccc(OC(F)(F)F)c2F)c2ccccc21` [Example 442, 3-{2-[(2S,4R)-4-Fluoro-2-(2-fluoro-3-trifluoromethoxy-phenylcarbamoyl)-pyrrolidin-1-yl]-2-oxo-ethyl}-indole-1-carboxylic acid amide], the IC50 came to 850 nM.

Consider `NC(=O)n1cc(CC(=O)N2C[C@@H]3C[C@@H]3[C@H]2C(=O)N[C@H](CO)c2cccc(Cl)c2F)c2ccccc21` [Example 443, 3-(2-{(1S,2S,5R)-2-[(S)-1-(3-Chloro-2-fluoro-phenyl)-2-hydroxy-ethylcarbamoyl]-3-azabicyclo[3.1.0]hex-3-yl}-2-oxo-ethyl)-indole-1-carboxylic acid amide], for which the IC50 was found to be 4470 nM.

`NC(=O)n1cc(CC(=O)N2CC[C@@H](O)[C@H]2C(=O)NCc2cccc(Cl)c2F)c2ccccc21` [Example 444, 3-{2-[(2S,3R)-2-(3-Chloro-2-fluoro-benzylcarbamoyl)-3-hydroxy-pyrrolidin-1-yl]-2-oxo-ethyl}-indole-1-carboxylic acid amide]: the IC50 worked out at 243 nM.

Turning to `CN(C)C[C@@]1(F)C[C@@H](C(=O)NCc2cccc(Cl)c2F)N(C(=O)Cc2cn(C(N)=O)c3ccccc23)C1` [Example 445, 3-{2-[(2S,4S)-2-(3-Chloro-2-fluoro-benzylcarbamoyl)-4-dimethylaminomethyl-4-fluoro-pyrrolidin-1-yl]-2-oxo-ethyl}-indole-1-carboxylic acid amide], the IC50 was 580 nM.

In the case of `NC(=O)n1cc(CC(=O)N2[C@@H]3C[C@@H]3C[C@H]2C(=O)NCc2cccc(Cl)c2F)c2ccccc21` [Example 446, 3-{2-[(1R,3S,5R)-3-(3-Chloro-2-fluoro-benzylcarbamoyl)-2-aza-bicyclo[3.1.0]hex-2-yl]-2-oxo-ethyl}-indole-1-carboxylic acid amide], the IC50 came to 16 nM.

Take `NC(=O)n1cc(CC(=O)N2C[C@H](F)C[C@H]2C(=O)NCc2cccc(Cl)c2F)c2ccccc21` [Example 448, 3-{2-[(2S,4R)-2-(3-Chloro-2-fluoro-benzylcarbamoyl)-4-fluoro-pyrrolidin-1-yl]-2-oxo-ethyl}-indole-1-carboxylic acid amide]: the IC50 turned out to be 26 nM.

In the case of `NC(=O)n1cc(CC(=O)N2[C@@H]3C[C@@H]3C[C@H]2C(=O)N[C@H](CO)c2cccc(Cl)c2F)c2ccccc21` [Example 449, 3-(2-{(1R,3S,5R)-3-[(S)-1-(3-Chloro-2-fluoro-phenyl)-2-hydroxy-ethylcarbamoyl]-2-aza-bicyclo[3.1.0]hex-2-yl}-2-oxo-ethyl)-indole-1-carboxylic acid amide], the IC50 is 51 nM.

As to `NC(=O)n1cc(CC(=O)N2CCS[C@H]2C(=O)NCc2cccc(Cl)c2F)c2ccccc21` [Example 450, 3-{2-[(S)-2-(3-Chloro-2-fluoro-benzylcarbamoyl)-thiazolidin-3-yl]-2-oxo-ethyl}-indole-1-carboxylic acid amide], the IC50 was 25 nM.

Regarding `NC(=O)n1cc(CC(=O)N2C[C@@](F)(CO)C[C@H]2C(=O)NCc2cccc(Cl)c2F)c2ccccc21` [Example 451, 3-{2-[(2S,4R)-2-(3-Chloro-2-fluoro-benzylcarbamoyl)-4-fluoro-4-hydroxymethyl-pyrrolidin-1-yl]-2-oxo-ethyl}-indole-1-carboxylic acid amide], the IC50 came to 90 nM.

For `COc1ccc2c(c1)c(CC(=O)N1C3CC3C[C@H]1C(=O)NCc1cccc(Cl)c1F)cn2C(N)=O` (stereo partly drawn) [Example 452, 3-{2-[(1R,3S,5R)-3-(3-Chloro-2-fluoro-benzylcarbamoyl)-2-aza-bicylo[3.1.0]hex-2-yl]-2-oxo-ethyl}-5-methoxy-indole-1-carboxylic acid amide], the IC50 stood at 15 nM.

Regarding `NC(=O)n1cc(CC(=O)N2[C@@H]3C[C@@H]3C[C@H]2C(=O)NCc2cccc(Cl)c2F)c2cc(OCCO)ccc21` [Example 453, 3-{2-[(1R,3S,5R)-3-(3-Chloro-2-fluoro-benzylcarbamoyl)-2-aza-bicyclo[3.1.0]hex-2-yl]-2-oxo-ethyl}-5-(2-hydroxy-ethoxy)-indole-1-carboxylic acid amide], the IC50 amounted to 13 nM.

`COC[C@@]12C[C@@H](C(=O)NCc3cccc(Cl)c3F)N(C(=O)Cc3cn(C(N)=O)c4ccccc34)[C@@H]1C2` [Example 454, 3-{2-[(1R,3S,5S)-3-(3-Chloro-2-fluoro-benzylcarbamoyl)-5-methoxymethyl-2-aza-bicyclo[3.1.0]hex-2-yl]-2-oxo-ethyl}-indole-1-carboxylic acid amide]: the IC50 was 103 nM.

Regarding `NC(=O)n1cc(CC(=O)N2[C@@H]3C[C@@H]3C[C@H]2C(=O)Nc2cccc(OC(F)(F)F)c2)c2cc(OCCO)ccc21` [Example 455, 5-(2-Hydroxy-ethoxy)-3-{2-oxo-2-[(1R,3S,5R)-3-(3-trifluoromethoxy-phenylcarbamoyl)-2-aza-bicyclo[3.1.0]hex-2-yl]-ethyl}-indole-1-carboxylic acid amide], the half-maximal inhibitory concentration (IC50) came out at 767 nM.

For `NC(=O)n1cc(CC(=O)N2[C@@H]3C[C@@H]3C[C@H]2C(=O)NCc2ccc(Cl)s2)c2ccccc21` [Example 456, 3-(2-{(1R,3S,5R)-3-[(5-Chloro-thiophen-2-ylmethyl)-carbamoyl]-2-aza-bicyclo[3.1.0]hex-2-yl}-2-oxo-ethyl)-indole-1-carboxylic acid amide], the IC50 was 85 nM.

Take `NC(=O)n1cc(CC(=O)N2[C@@H]3C[C@@H]3C[C@H]2C(=O)N[C@H](CCO)c2cccc(Cl)c2F)c2ccccc21` [Example 457, 3-(2-{(1R,3S,5R)-3-[(R)-1-(3-Chloro-2-fluoro-phenyl)-3-hydroxy-propylcarbamoyl]-2-azabicyclo[3.1.0]hex-2-yl}-2-oxo-ethyl)-indole-1-carboxylic acid amide]: the IC50 was determined as 107 nM.

With `CN(C)C[C@@H](NC(=O)[C@@H]1C[C@H]2C[C@H]2N1C(=O)Cc1cn(C(N)=O)c2ccccc12)c1cccc(Cl)c1F` [Example 458, 3-(2-{(1R,3S,5R)-3-[(S)-1-(3-Chloro-2-fluoro-phenyl)-2-dimethylamino-ethylcarbamoyl]-2-aza-bicyclo[3.1.0]hex-2-yl}-2-oxo-ethyl)-indole-1-carboxylic acid amide], the IC50 stood at 169 nM.

Usually IC50 stands for the point on the concentration scale where inhibition reaches its midpoint.
